The record followed here is patent US5177077A, “1,4-disubstituted piperazines” (Novo Nordisk A/S, priority 1990, dated 1993).

The structures appear in SMILES notation. Like-named read-outs stand apart in the source and are kept apart here.

In experiment [1] the test system is motility of mice. As to the kind of experiment: Test 2: increase of motility of mice (photocell crossings). In kind it is in vivo, Male NMRI mice. The following applies: for ED50: Mus musculus, po, lowest ED50 determined at a 20 min interval during the 360 min test period, drugs administered orally. How it is done: The compounds were also tested for their ability to increase the motility of mice following intravenous administration using the method outlined below.
Male NMRI mice are used (20±2 g). The animals are housed 20-30 per cage under constant temperature (20°±1°) and relative humidity (40-60%). The animals are brought into the experimental room in the afternoon, the day before they undergo testing.
The experimentally-naive mice are acclimatized by being placed in a plexiglass box (WLH: 20×20×38 cm), four per box, for a 120 min period, and then treated with the test compound whereafter they are replaced in the plexiglass box.
The plexiglass box is equipped with a frame of photocells (spaced equidistantly) which are situated so as to detect locomotor behaviour of the animals (1 cm above the floor). The photocell chamber is housed in an sound-insulated, dimly-lit, ventilated chest. As a measure of exploratory behaviour, the number of photocell crossings in a 360 min period is detected using a minicomputer. Testing is made between 7:00 and 17.00 h.
Drugs are administered orally simultaneously with start of testing; N=4/dose; 4-5 doses of test drug is given in a volume of 10 ml/kg.
Computer programmed log-probit methods are used to generate an ED50 in mg/kg using as minimum the control result, and as maximum values are used 7700 (this latter value has been experimentally found as the maximum motility counts after d-amphetamine in a 20 min period).
The test result is the lowest ED50 value determined at a 20 min interval during the 360 min test period.

The target in experiment [2] is T1, DA-uptake complex (Rattus norvegicus, UniProt P23977).
T1 construct: in a striatal membrane preparation; from tissue; host or cells: striatal membranes
As to the kind of experiment: Test 1: inhibition of 3H-GBR 12935 binding to the DA-uptake complex in a striatal membrane preparation. On the procedure: The compounds were tested for their ability to inhibit the binding of 3H-GBR 12935 to the DA-uptake complex in a striatal membrane preparation following the method described by Andersen (Eur. J. Pharmacol. 166: 493-504, 1989).

T1 sequence (P23977 whole entry, one chain of several): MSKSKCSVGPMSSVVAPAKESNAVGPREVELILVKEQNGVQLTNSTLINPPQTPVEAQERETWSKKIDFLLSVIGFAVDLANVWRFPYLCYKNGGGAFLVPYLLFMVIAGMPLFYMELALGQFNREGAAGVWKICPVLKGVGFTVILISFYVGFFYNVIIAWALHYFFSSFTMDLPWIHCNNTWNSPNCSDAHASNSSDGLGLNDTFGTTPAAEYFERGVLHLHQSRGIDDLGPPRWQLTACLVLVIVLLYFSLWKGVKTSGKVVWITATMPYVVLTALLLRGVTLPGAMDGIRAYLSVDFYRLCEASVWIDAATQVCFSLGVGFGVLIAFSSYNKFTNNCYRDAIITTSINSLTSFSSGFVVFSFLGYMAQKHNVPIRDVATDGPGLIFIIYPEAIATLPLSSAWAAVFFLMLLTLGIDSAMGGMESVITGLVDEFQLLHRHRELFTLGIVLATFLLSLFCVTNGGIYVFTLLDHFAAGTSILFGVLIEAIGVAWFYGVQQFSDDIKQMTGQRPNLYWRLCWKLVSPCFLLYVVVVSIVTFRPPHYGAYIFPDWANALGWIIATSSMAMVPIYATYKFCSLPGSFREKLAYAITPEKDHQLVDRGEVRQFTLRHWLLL

As for `Cc1ccsc1C(OCCN1CCN(CCCc2ccccc2)CC1)c1ccc(F)cc1` (stereo not shown) [Example 1], the ED50 in experiment [1] came out at 30 mg/kg. The IC50 in experiment [2] (striatal membrane preparation, method of Andersen 1989, read-out: Test 1 (inhibition of 3H-GBR 12935 binding)) is 9 nM. In the case of `Fc1ccc(C(OCCN2CCN(CC=Cc3ccco3)CC2)c2cccs2)cc1` (stereo not shown) [Example 2, 1-[2-((4-fluorophenyl)-(2-thienyl)methoxy)ethyl]-4-[3-(2-furyl)-2-propenyl]piperazine], in experiment [1], the 50% effect level (ED50) was put at a dose of 17.4 mg/kg. In addition, the IC50 in experiment [2] worked out at 4.7 nM. Compound `Fc1ccc(C(OCCN2CCN(CCCc3ccccc3)CC2)c2ccsc2)cc1` (stereo not shown) [Example 3, 1-[2-((4-fluorophenyl)-(3-thienyl)methoxy)ethyl]-4-(3-phenylpropyl)piperazine] displayed an ED50 in experiment [1] of 32 mg/kg. This compound also displayed an IC50 in experiment [2] of 3.7 nM. In experiment [1] (in a 20 min period, used as maximum for the log-probit ED50), `C[C@H](N)Cc1ccccc1` [d-amphetamine, reference compound] had a maximum motility counts of 7700.
